This assay deals with T1, BRAF V600E (Homo sapiens, UniProt P15056, V600E).
T1 construct: endogenous C-terminal HiBiT fusion tag on BRAF V600E allele; endogenous in cells; host or cells: A375 clone 1F10 (CRISPR-Cas9 knock-in of the HiBiT tag; parental A375 from ATCC)
In words: BRAF HiBiT degradation assay, C-terminal HiBiT-tagged BRAF V600E A375 cells (clone 1F10), Nano-Glo HiBiT Lytic assay. The assay is classed as cell-based. Conditions: A375 (BRAF V600E); for DC50: DC50 at 50%: fitted conc. at Y=50; for Dmax: A-375, percentage protein degraded at maximal compound effect relative to DMSO. The procedure, abridged: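 Luminescence from the Nano-Glo HiBiT lytic read-out gave % BRAF V600E remaining versus DMSO-treated tagged cells, with untagged A375 as background. Clone 1F10 cells (10,000/well, 24 h pre-culture) received compound at 1 μM–0.01 nM in half-log steps, 0.2% DMSO; curve fits gave DC50 at Y=50, plus observed Dmax.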

T1 sequence (P15056 whole entry V600E, the tested form may be a part): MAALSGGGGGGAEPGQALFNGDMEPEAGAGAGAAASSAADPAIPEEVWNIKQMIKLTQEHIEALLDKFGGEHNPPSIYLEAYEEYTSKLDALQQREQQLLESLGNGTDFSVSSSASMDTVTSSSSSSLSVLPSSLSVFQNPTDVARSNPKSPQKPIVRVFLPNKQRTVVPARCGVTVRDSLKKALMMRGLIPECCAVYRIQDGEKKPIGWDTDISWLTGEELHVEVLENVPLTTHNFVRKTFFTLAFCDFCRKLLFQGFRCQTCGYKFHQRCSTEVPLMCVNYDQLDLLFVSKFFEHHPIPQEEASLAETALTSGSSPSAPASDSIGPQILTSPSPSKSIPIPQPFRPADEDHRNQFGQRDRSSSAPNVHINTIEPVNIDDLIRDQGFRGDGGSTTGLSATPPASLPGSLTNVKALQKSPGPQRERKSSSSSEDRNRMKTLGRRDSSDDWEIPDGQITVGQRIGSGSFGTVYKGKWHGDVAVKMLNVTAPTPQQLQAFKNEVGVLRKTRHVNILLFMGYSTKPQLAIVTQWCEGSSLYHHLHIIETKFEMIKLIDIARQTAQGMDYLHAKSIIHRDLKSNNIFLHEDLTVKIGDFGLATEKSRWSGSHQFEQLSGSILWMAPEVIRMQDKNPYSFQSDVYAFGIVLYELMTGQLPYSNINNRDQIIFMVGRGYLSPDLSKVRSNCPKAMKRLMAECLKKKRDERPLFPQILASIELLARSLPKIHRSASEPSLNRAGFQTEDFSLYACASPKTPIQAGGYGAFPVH

The term DC50 denotes the concentration giving 50% degradation. A low value points to a more potent degrader. The term Dmax denotes the greatest extent of degradation seen. In turn, `CCCS(=O)(=O)Nc1cccc(-c2nc(C3CCN(C(=O)C4CCN(C(=O)C5CCN(c6ccc(C7CCC(=O)NC7=O)cc6)CC5)CC4)CC3)sc2-c2ccnc(N)n2)c1F` (racemic) [Compound 216, Rac-N-{3-[5-(2-aminopyrimidin-4-yl)-2-{1-[1-(1-{4-[(3R)-2,6-dioxopiperidin-3-yl]phenyl}piperidine-4-carbonyl)piperidine-4-carbonyl]piperidin-4-yl}-1,3-thiazol-4-yl]-2-fluorophenyl}propane-1-sulfonamide] returned a half-maximal degradation concentration (DC50) of less than 0.01 µM and a Dmax of more than 70%.
Consider `CCCS(=O)(=O)Nc1cccc(-c2nc(C)sc2-c2ccnc(Nc3ccc(C4CCN(CC5CCN(c6ccc(C7CCC(=O)NC7=O)cn6)CC5)CC4)cc3)n2)c1F` (racemic) [Compound 54, Rac-N-[3-(5-{2-[(4-{1-[(1-{5-[(3R)-2,6-dioxopiperidin-3-yl]pyridin-2-yl}piperidin-4-yl)methyl]piperidin-4-yl}phenyl)amino]pyrimidin-4-yl}-2-methyl-1,3-thiazol-4-yl)-2-fluorophenyl]propane-1-sulfonamide], for which the DC50 is less than 0.01 µM and the Dmax was more than 70%.
The compound `CCCS(=O)(=O)Nc1cccc(-c2nc(C)sc2-c2ccnc(Nc3ccc(C4CCN(CC5CCN(c6ccc([C@H]7CCC(=O)NC7=O)cc6)CC5)CC4)cc3)n2)c1F` [Compound 63, N-[3-(5-{2-[(4-{1-[(1-{4-[(3R)-2,6-dioxopiperidin-3-yl]phenyl}piperidin-4-yl)methyl]piperidin-4-yl}phenyl)amino]pyrimidin-4-yl}-2-methyl-1,3-thiazol-4-yl)-2-fluorophenyl]propane-1-sulfonamide] showed a DC50 of less than 0.01 µM and a Dmax of more than 70%.
As for `CCCS(=O)(=O)Nc1cccc(-c2nc(C3CCN(CC4CCN(C(=O)[C@H]5CC[C@H](Oc6cccc(C7CCC(=O)NC7=O)c6)CC5)CC4)CC3)sc2-c2ccnc(N)n2)c1F` (mixture of isomers) [Compound 223, N-{3-[5-(2-aminopyrimidin-4-yl)-2-[1-({1-[(1r,4r)-4-{3-[(3RS)-2,6-dioxopiperidin-3-yl]phenoxy}cyclohexanecarbonyl]piperidin-4-yl}methyl)piperidin-4-yl]-1,3-thiazol-4-yl]-2-fluorophenyl}propane-1-sulfonamide], the DC50 was 0.05 to 0.5 µM and the Dmax is 30 to 70%.
Regarding `CCCS(=O)(=O)Nc1cccc(-c2nc(C(C)(C)C)sc2-c2ccnc(NC3CC4(C3)CN(C(=O)CC3CCN(C5CCN(c6ccc7c(c6)C(=O)N(C6CCC(=O)NC6=O)C7=O)CC5)CC3)C4)n2)c1F` (racemic) [Compound 157, Rac-N-(3-{2-tert-butyl-5-[2-({2-[2-(1′-{2-[(3R)-2,6-dioxopiperidin-3-yl]-1,3-dioxo-2,3-dihydro-1H-isoindol-5-yl}-[1,4′-bipiperidin]-4-yl)acetyl]-2-azaspiro[3.3]heptan-6-yl}amino)pyrimidin-4-yl]-1,3-thiazol-4-yl}-2-fluorophenyl)propane-1-sulfonamide], the DC50 fell in the range of 0.05 to 0.5 µM and the Dmax fell in the range of 30 to 70%.
In the case of `CCCS(=O)(=O)Nc1cccc(-c2nc(-c3ccc(N4CCN(C(=O)C5CCN(c6ccc(C7CCC(=O)NC7=O)cn6)CC5)CC4)cc3)sc2-c2ccnc(N)n2)c1F` (racemic) [Compound 188, Rac-N-{3-[5-(2-aminopyrimidin-4-yl)-2-{4-[4-(1-{5-[(3R)-2,6-dioxopiperidin-3-yl]pyridin-2-yl}piperidine-4-carbonyl)piperazin-1-yl]phenyl}-1,3-thiazol-4-yl]-2-fluorophenyl}propane-1-sulfonamide], the DC50 was less than 0.01 µM and the Dmax was more than 70%.
Taken in the same sequence, the figures for `CCCS(=O)(=O)Nc1cccc(-c2nc(C(C)(C)C)sc2-c2ccnc(NC3CC4(CCN(CC5CCN(c6ccc([C@H]7CCC(=O)NC7=O)cc6)CC5)CC4)C3)n2)c1F` [Compound 133, N-(3-{2-tert-butyl-5-[2-({7-[(1-{4-[(3R)-2,6-dioxopiperidin-3-yl]phenyl}piperidin-4-yl)methyl]-7-azaspiro[3.5]nonan-2-yl}amino)pyrimidin-4-yl]-1,3-thiazol-4-yl}-2-fluorophenyl)propane-1-sulfonamide] were 0.01 to 0.05 µM and 30 to 70%.
On the same counts, the results for `CCCS(=O)(=O)Nc1cccc(-c2nc(C(C)(C)C)sc2-c2ccnc(Nc3cccc(C4CCN(C(=O)CN5CCc6cc(C7CCC(=O)NC7=O)ccc6C5)CC4)c3)n2)c1F` (racemic) [Compound 104, Rac-N-(3-{2-tert-butyl-5-[2-({3-[1-(2-{6-[(3R)-2,6-dioxopiperidin-3-yl]-1,2,3,4-tetrahydroisoquinolin-2-yl}acetyl)piperidin-4-yl]phenyl}amino)pyrimidin-4-yl]-1,3-thiazol-4-yl}-2-fluorophenyl)propane-1-sulfonamide] are 0.05 to 0.5 µM and 30 to 70%.
As for `CCCS(=O)(=O)Nc1cccc(-c2nc(C3CCN(C(=O)CN4CCN(c5ccc6c(c5)C(=O)N(C5CCC(=O)NC5=O)C6=O)CC4)CC3)sc2-c2ccnc(N)n2)c1F` (racemic) [Compound 233, Rac-N-{3-[5-(2-aminopyrimidin-4-yl)-2-{1-[2-(4-{2-[(3R)-2,6-dioxopiperidin-3-yl]-1,3-dioxo-2,3-dihydro-1H-isoindol-5-yl}piperazin-1-yl)acetyl]piperidin-4-yl}-1,3-thiazol-4-yl]-2-fluorophenyl}propane-1-sulfonamide], the DC50 was 0.01 to 0.05 µM and the Dmax lay within 30 to 70%.
The compound `CCCS(=O)(=O)Nc1cccc(-c2nc(C(C)(C)C)sc2-c2ccnc(Nc3ccc4c(c3)CCN(C(=O)CN3CCN(c5cc(C6CCC(=O)NC6=O)ccn5)CC3)C4)n2)c1F` (racemic) [Compound 120, Rac-N-(3-{2-tert-butyl-5-[2-({2-[2-(4-{4-[(3R)-2,6-dioxopiperidin-3-yl]pyridin-2-yl}piperazin-1-yl)acetyl]-1,2,3,4-tetrahydroisoquinolin-6-yl}amino)pyrimidin-4-yl]-1,3-thiazol-4-yl}-2-fluorophenyl)propane-1-sulfonamide] registered a DC50 of 0.05 to 0.5 µM and a Dmax of 30 to 70%.
Taken in the same sequence, the figures for `CCCS(=O)(=O)Nc1cccc(-c2nc(C3CCC4(CC3)CCN(C(=O)CN3CCC5(CC3)CN(c3ccc6c(c3)C(=O)N(C3CCC(=O)NC3=O)C6=O)C5)CC4)sc2-c2ccnc(N)n2)c1F` (racemic) [Compound 237, Rac-N-{3-[5-(2-aminopyrimidin-4-yl)-2-{3-[2-(2-{2-[(3R)-2,6-dioxopiperidin-3-yl]-1,3-dioxo-2,3-dihydro-1H-isoindol-5-yl}-2,7-diazaspiro[3.5]nonan-7-yl)acetyl]-3-azaspiro[5.5]undecan-9-yl}-1,3-thiazol-4-yl]-2-fluorophenyl}propane-1-sulfonamide] were less than 0.01 µM and more than 70%.
`CCCS(=O)(=O)Nc1cccc(-c2nc(C(C)(C)C)sc2-c2ccnc(Nc3ccc(C4CCN(C(=O)CCCCCc5ccc6c(c5)C(=O)N(C5CCC(=O)NC5=O)C6)CC4)cc3)n2)c1F` (racemic) [Compound 151, Rac-N-(3-{2-tert-butyl-5-[2-({4-[1-(6-{2-[(3R)-2,6-dioxopiperidin-3-yl]-3-oxo-2,3-dihydro-1H-isoindol-5-yl}hexanoyl)piperidin-4-yl]phenyl}amino)pyrimidin-4-yl]-1,3-thiazol-4-yl}-2-fluorophenyl)propane-1-sulfonamide] displayed a DC50 of 0.01 to 0.05 µM and a Dmax of 30 to 70%.
Take `CCCS(=O)(=O)Nc1cccc(-c2cn(-c3ccc(N4CCN(CC5(C)CCN(c6ccc(C7CCC(=O)NC7=O)cn6)CC5)CC4)cc3)nc2-c2ccncc2)c1F` (racemic) [Compound 17, Rac-N-{3-[1-(4-{4-[(1-{5-[(3R)-2,6-dioxopiperidin-3-yl]pyridin-2-yl}-4-methylpiperidin-4-yl)methyl]piperazin-1-yl}phenyl)-3-(pyridin-4-yl)-1H-pyrazol-4-yl]-2-fluorophenyl}propane-1-sulfonamide]: the DC50 lay within 0.05 to 0.5 µM and the Dmax is 30 to 70%.
Taken in the same sequence, the figures for `CCCS(=O)(=O)Nc1cccc(-c2nc(C(C)(C)C)sc2-c2ccnc(Nc3cnn(C4CCN(C(=O)[C@@H]5CCN(c6ccc(C7CCC(=O)NC7=O)cn6)C5)CC4)c3)n2)c1F` (mixture of isomers) [Compound 106, N-[3-(2-tert-butyl-5-{2-[(1-{1-[(3R)-1-{5-[(3RS)-2,6-dioxopiperidin-3-yl]pyridin-2-yl}pyrrolidine-3-carbonyl]piperidin-4-yl}-1H-pyrazol-4-yl)amino]pyrimidin-4-yl}-1,3-thiazol-4-yl)-2-fluorophenyl]propane-1-sulfonamide] were 0.05 to 0.5 µM and 30 to 70%.
In the case of `CCCS(=O)(=O)Nc1cccc(-c2nc(-c3ccc(N4CCN(C(=O)C5CCN(c6ccc(C7CCC(=O)NC7=O)cc6)CC5)CC4)cc3)sc2-c2ccnc(N)n2)c1F` (racemic) [Compound 190, Rac-N-{3-[5-(2-aminopyrimidin-4-yl)-2-{4-[4-(1-{4-[(3R)-2,6-dioxopiperidin-3-yl]phenyl}piperidine-4-carbonyl)piperazin-1-yl]phenyl}-1,3-thiazol-4-yl]-2-fluorophenyl}propane-1-sulfonamide], the DC50 lay within 0.01 to 0.05 µM and the maximal degradation (Dmax) is 30 to 70%.
Taken in the same sequence, the figures for `CCCS(=O)(=O)Nc1cccc(-c2nc(C3CCC4(CC3)CCN(C(=O)CN3CCN(CCCc5cccc6c5C(=O)N(C5CCC(=O)NC5=O)C6=O)CC3)CC4)sc2-c2ccnc(N)n2)c1F` (racemic) [Compound 229, Rac-N-{3-[5-(2-aminopyrimidin-4-yl)-2-(3-{2-[4-(3-{2-[(3R)-2,6-dioxopiperidin-3-yl]-1,3-dioxo-2,3-dihydro-1H-isoindol-4-yl}propyl)piperazin-1-yl]acetyl}-3-azaspiro[5.5]undecan-9-yl)-1,3-thiazol-4-yl]-2-fluorophenyl}propane-1-sulfonamide] were more than 0.5 µM and 30 to 70%.

These data come from US20260317324A1, “BIFUNCTIONAL COMPOUNDS FOR DEGRADING BRAF VIA UBIQUITIN PROTEOSOME PATHWAY” (Nurix Therapeutics, Inc., priority 2023, published 2026).
